Reference: patent US7919532B2, “Hydroxylated aromatic compounds” (Revotar Biopharmaceuticals AG, priority 2005, dated 2011)

Columns and labels:
[1] = target: T1, human L-Selectin-IgG-chimera (Homo sapiens, UniProt P14151); test: Sialyl Lewis X Tyrosine Sulfate Assay (sLex TSA), L-selectin; details: inhibition of binding of sLex-tyrosine sulfate polyacrylamide ligand complex to selectin chimera
T1 construct: IgG (chimera partner)
Protocol: (§1) Compounds of the present invention are assayed on a molecular level for their ability to inhibit the binding of P-, L-, or E-selectin chimeric molecules to sLe^x and tyrosinesulfate residues linked to a polymeric matrix as a PSGL-1 substitute. Selected IC50-values are determined.
(§2) Microtiter plates are coated overnight in carbonate buffer pH9.6 with goat anti human Fc mAB (10 μg/ml). After washing in assay buffer (25 mM 4-(2-hydroxyethyl)-1-piperazineethanesulfonic acid (HEPES), 150 mM NaCl, 1 mM CaCl2 pH7.4) and blocking (3% bovine serum albumin (BSA) in assay buffer) plates are incubated for 2 h at 37° C. with human P-Selectin-IgG-chimera (0.61 nM respectively 150 ng/mL) or human L-Selectin-IgG-chimera (0.61 nM respectively 89 ng/mL) or human E-Selectin-IgG-chimera (0.61 nM respectively 131 ng/mL). 5 μl of sLe^x-tyrosine sulfate polyacrylamide (1 mg/ml) carrying 15% sLe^x, 10% Tyrosine-sulfate and 5% biotin is complexed with 20 μl Streptavidin-Peroxidase solution (1 mg/ml) and 25 μl assay buffer without CaCl2. For use in the assay, the ligand complex is diluted 1:10000 in assay buffer and further diluted 1:1 with varying amounts of compounds in assay buffer incl. 2% DMSO. This mixture is added to the wells precoated with E- or P-selectin. After incubation for 2 h at 37° C., wells are washed for six times with in assay buffer incl. 0.005% Polyoxyethylenesorbitan monolaurate (TWEEN 20), developed for 10-15 min with 20 μl 3,3′,5,5′-tetramethylbenzidine (TMB)/H2O2 substrate solution and stopped with 20 μl 1M H2SO4. Bound sLe^x-Tyrosine sulfate ligand complex is determined by measuring optical density at 450 nm vs. 620 nm in a Fusion alpha-FP reader (sold from Packard Bioscience, Dreieich, Germany).

[2] = target: T2, human E-Selectin-IgG-chimera (Homo sapiens, UniProt P16581); test: Flow chamber assay, cell adhesion and rolling under flow conditions, E-selectin; assay type: cell-based; details: 125 μM compound, HL-60 cells, flow shear 1 dyne/cm^2, dish coated 2.5 μg/ml E-selectin-IgG chimera
Protocol: (§3) Flow Chamber Assay/Cell Adhesion and Rolling Under Flow Conditions
(§4) To assess the capability of compounds to inhibit cell binding under dynamic conditions resembling the flow in a blood vessel, flow chamber assays addressing/testing binding of HL-60 cells/various cell lines to P-selectin, L-selectin and E-selectin chimeric molecules are performed.
(§5) Cell attachment under flow conditions are determined using a parallel flow chamber system. A 35 mm polystyrene culture dish is coated for 1 hour at room temperature with coating buffer (50 mM tris-(hydroxymethyl)aminomethane buffer (Tris), 150 mM NaCl, 2 mM CaCl2; pH 7.4) containing human E- or P-selectin-IgG chimera at concentrations of 2.5 μg/ml or 10 μg/ml, respectively. After removal of the coating solution non specific binding sites are blocked for an additional hour with 1% BSA in coating buffer at room temperature. After washing with assay buffer (“Roswell Park Memorial Institute 1640” (RPMI 1640)+10 mM HEPES) the dish is fitted into a parallel plate laminar flow chamber (sold from Glycotech, Rockville, Md.) and mounted on an inverted phase-contrast microscope (sold from Olympus, Hamburg, Germany) equipped with a CCD camera (JVC) that is connected to a PC. Employing a peristaltic pump (sold from Ismatec, Wertheim-Mondfeld, Germany) the re-circulating system is equilibrated with assay buffer containing 125 μM compound or vehicle control (DMSO). Cells (1 million/ml) are added to the chamber and allowed to distribute for 2 minutes at a high flow rate. The flow rate is then decreased resulting in a calculated flow shear of 1 dyne/cm^2. Video sequences of 10 low power fields are digitally recorded after 5 minutes continuous flow. The percentage of inhibition is calculated from the mean number of cells per field that attached to the coated dish surface in the presence versus absence of compound […].
(§6) Data from Flow Chamber Assay for E- and P-Selectin

[3] = target: T3, human P-Selectin-IgG-chimera (Homo sapiens, UniProt P16109); test: Flow chamber assay, cell adhesion and rolling under flow conditions, P-selectin; assay type: cell-based; details: 125 μM compound, HL-60 cells, flow shear 1 dyne/cm^2, dish coated 10 μg/ml P-selectin-IgG chimera
Protocol: as §3, §4, §5, §6

[4] = target: T2, human E-Selectin-IgG-chimera; test: Sialyl Lewis X Tyrosine Sulfate Assay (sLex TSA), E-selectin; set-up: IgG (chimera partner); details: inhibition of binding of sLex-tyrosine sulfate polyacrylamide ligand complex to selectin chimera
Protocol: as §1, §2

[5] = target: T3, human P-Selectin-IgG-chimera; test: Sialyl Lewis X Tyrosine Sulfate Assay (sLex TSA), P-selectin; set-up: IgG (chimera partner); details: inhibition of binding of sLex-tyrosine sulfate polyacrylamide ligand complex to selectin chimera
Protocol: as §1, §2

T2 sequence (P16581 with tags, fused parts or gaps limits assumed): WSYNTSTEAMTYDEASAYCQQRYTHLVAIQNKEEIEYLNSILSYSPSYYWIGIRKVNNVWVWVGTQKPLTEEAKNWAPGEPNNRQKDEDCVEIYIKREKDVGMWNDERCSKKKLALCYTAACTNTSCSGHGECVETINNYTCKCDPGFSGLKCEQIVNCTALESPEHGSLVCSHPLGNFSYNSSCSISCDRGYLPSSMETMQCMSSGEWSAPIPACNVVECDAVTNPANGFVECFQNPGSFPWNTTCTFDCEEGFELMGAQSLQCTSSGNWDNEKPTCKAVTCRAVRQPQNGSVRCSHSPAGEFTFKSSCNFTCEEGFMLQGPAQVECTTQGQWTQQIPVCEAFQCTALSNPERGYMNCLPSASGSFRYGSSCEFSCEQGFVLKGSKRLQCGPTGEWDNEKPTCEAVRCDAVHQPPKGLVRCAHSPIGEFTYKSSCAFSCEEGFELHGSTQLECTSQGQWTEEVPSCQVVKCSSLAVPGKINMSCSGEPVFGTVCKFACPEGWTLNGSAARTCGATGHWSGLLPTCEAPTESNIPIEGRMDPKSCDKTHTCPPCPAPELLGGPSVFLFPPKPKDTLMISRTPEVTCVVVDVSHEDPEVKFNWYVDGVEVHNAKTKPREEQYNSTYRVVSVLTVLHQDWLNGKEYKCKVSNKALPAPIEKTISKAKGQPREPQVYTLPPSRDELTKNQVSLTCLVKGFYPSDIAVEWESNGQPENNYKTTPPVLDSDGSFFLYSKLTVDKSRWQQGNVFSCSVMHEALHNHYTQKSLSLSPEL
T1 sequence (P14151 with tags, fused parts or gaps limits assumed): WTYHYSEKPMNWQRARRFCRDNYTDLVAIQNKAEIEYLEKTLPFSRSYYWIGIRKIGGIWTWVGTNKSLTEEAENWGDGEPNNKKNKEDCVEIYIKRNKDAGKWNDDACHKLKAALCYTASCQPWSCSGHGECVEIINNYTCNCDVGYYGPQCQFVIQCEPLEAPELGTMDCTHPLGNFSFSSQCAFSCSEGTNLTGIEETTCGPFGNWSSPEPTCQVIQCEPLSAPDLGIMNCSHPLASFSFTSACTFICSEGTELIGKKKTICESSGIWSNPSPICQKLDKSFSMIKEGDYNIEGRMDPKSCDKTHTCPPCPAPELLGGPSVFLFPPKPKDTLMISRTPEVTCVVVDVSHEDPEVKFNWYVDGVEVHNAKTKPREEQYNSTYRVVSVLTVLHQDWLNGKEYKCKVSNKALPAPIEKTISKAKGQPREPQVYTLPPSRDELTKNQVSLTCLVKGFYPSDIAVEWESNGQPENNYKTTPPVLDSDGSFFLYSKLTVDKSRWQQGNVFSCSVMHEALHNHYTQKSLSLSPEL
T3 sequence (P16109 with tags, fused parts or gaps limits assumed): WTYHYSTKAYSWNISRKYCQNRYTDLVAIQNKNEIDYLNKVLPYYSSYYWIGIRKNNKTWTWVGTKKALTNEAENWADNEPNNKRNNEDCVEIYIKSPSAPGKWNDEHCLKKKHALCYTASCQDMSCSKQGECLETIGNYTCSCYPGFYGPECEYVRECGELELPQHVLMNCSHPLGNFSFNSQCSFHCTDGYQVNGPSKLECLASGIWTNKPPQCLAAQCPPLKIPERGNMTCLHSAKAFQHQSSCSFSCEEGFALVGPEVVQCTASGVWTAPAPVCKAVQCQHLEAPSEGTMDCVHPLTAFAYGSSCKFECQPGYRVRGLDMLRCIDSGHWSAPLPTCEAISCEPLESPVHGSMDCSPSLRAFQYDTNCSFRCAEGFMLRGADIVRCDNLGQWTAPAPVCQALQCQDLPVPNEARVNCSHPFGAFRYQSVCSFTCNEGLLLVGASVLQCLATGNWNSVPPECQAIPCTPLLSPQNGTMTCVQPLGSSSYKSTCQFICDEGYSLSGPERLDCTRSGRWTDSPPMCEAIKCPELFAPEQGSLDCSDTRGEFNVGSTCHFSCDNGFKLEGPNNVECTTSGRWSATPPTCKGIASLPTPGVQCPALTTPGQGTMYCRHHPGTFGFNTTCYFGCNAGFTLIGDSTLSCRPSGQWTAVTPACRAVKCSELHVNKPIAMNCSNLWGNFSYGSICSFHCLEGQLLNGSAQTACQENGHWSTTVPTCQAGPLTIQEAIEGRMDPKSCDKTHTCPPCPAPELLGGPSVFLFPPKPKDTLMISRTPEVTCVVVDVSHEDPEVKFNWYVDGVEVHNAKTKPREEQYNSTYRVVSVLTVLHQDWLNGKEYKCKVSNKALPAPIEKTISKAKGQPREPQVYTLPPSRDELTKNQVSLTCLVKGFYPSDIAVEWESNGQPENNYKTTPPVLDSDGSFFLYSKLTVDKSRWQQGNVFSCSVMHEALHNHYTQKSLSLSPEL

O=C(O)Cc1cccc(-c2cc(CCCCCCc3ccc(O[C@H]4O[C@H](CO)[C@@H](O)[C@H](O)[C@@H]4O)c(-c4cccc(CC(=O)O)c4)c3)ccc2O[C@H]2O[C@H](CO)[C@@H](O)[C@H](O)[C@@H]2O)c1 [Bimosiamose, bimosiamose, reference compound]
IC50 [1]: > 500 µM

O=C(Cc1c(O)cc(O)cc1O)Nc1cccc(C(=O)O)c1 [Compound 18, 3-[2-(2,4,6-Trihydroxy-phenyl)-acetylamino]-benzoic acid]
IC50 [1]: 35.1 µM
E-Selectin [Ratio]: normalized ratio of %-inhibition of compound divided by %-inhibition of bimosiamose [2]: 0.80 Ratio
P-Selectin [Ratio]: normalized ratio of %-inhibition of compound divided by %-inhibition of bimosiamose [3]: 1.07 Ratio
IC50 [4]: 41.2 µM
IC50 [5]: 37.1 µM

Cc1oc(-c2ccc(NC(=O)Cc3c(O)cc(O)cc3O)cc2)cc1C(=O)O [Compound 19, 2-Methyl-5-{4-[2-(2,4,6-trihydroxy-phenyl)-acetylamino]-phenyl}-furan-3-carboxylic acid]
IC50 [1]: 22.1 µM
E-Selectin [Ratio]: normalized ratio of %-inhibition of compound divided by %-inhibition of bimosiamose [2]: 0.75 Ratio
P-Selectin [Ratio]: normalized ratio of %-inhibition of compound divided by %-inhibition of bimosiamose [3]: 1.27 Ratio
IC50 [4]: 12.4 µM
IC50 [5]: 20.7 µM

O=C(O)Cc1ccc(-c2ccccc2NC(=O)Cc2c(O)cc(O)cc2O)s1 [Compound 25, (5-{2-[2-(2,4,6-Trihydroxy-phenyl)-acetylamino]-phenyl}-thiophen-2-yl)-acetic acid]
IC50 [1]: 95.9 µM
E-Selectin [Ratio]: normalized ratio of %-inhibition of compound divided by %-inhibition of bimosiamose [2]: 0.94 Ratio
P-Selectin [Ratio]: normalized ratio of %-inhibition of compound divided by %-inhibition of bimosiamose [3]: 1.65 Ratio
IC50 [4]: 105 µM
IC50 [5]: 87.9 µM

O=C(Nc1ccccc1-c1ccc(C(=O)O)s1)c1cccc(-c2c(O)cc(O)cc2O)c1 [Compound 26, 5-{2-[(2′,4′,6′-trihydroxy-biphenyl-3-carbonyl)-amino]-phenyl}-thiophene-2-carboxylic acid]
IC50 [1]: 28.2 µM
E-Selectin [Ratio]: normalized ratio of %-inhibition of compound divided by %-inhibition of bimosiamose [2]: 1.11 Ratio
P-Selectin [Ratio]: normalized ratio of %-inhibition of compound divided by %-inhibition of bimosiamose [3]: 0.77 Ratio
IC50 [4]: 33.3 µM
IC50 [5]: 27.8 µM

Cc1oc(-c2ccc(NC(=O)c3cccc(-c4c(O)cc(O)cc4O)c3)cc2)cc1C(=O)O [Compound 60, 2-Methyl-5-{4-[(2′,4′,6′-trihydroxy-biphenyl-3-carbonyl)-amino]-phenyl}-furan-3-carboxylic acid]
IC50 [1]: 6.1 µM
E-Selectin [Ratio]: normalized ratio of %-inhibition of compound divided by %-inhibition of bimosiamose [2]: 1.05 Ratio
P-Selectin [Ratio]: normalized ratio of %-inhibition of compound divided by %-inhibition of bimosiamose [3]: 0.99 Ratio
IC50 [4]: 7.8 µM
IC50 [5]: 5.2 µM

O=C(O)Cc1ccc(-c2ccccc2NC(=O)c2cccc(-c3c(O)cc(O)cc3O)c2)s1 [Compound 63, (5-{2-[(2′,4′,6′-Trihydroxy-biphenyl-3-carbonyl)-amino]-phenyl}-thiophen-2-yl)-acetic acid]
IC50 [1]: 17.4 µM
E-Selectin [Ratio]: normalized ratio of %-inhibition of compound divided by %-inhibition of bimosiamose [2]: 1.23 Ratio
P-Selectin [Ratio]: normalized ratio of %-inhibition of compound divided by %-inhibition of bimosiamose [3]: 0.87 Ratio
IC50 [4]: 21.9 µM
IC50 [5]: 17.4 µM

O=C(O)Cc1ccc(-c2cccc(NC(=O)c3cccc(-c4c(O)cc(O)cc4O)c3)c2)s1 [Compound 64, (5-{3-[(2′,4′,6′-trihydroxy-biphenyl-3-carbonyl)-amino]-phenyl}-thiophen-2-yl)-acetic acid]
IC50 [1]: 6.3 µM
E-Selectin [Ratio]: normalized ratio of %-inhibition of compound divided by %-inhibition of bimosiamose [2]: 1.06 Ratio
P-Selectin [Ratio]: normalized ratio of %-inhibition of compound divided by %-inhibition of bimosiamose [3]: 1.23 Ratio
IC50 [4]: 5.7 µM
IC50 [5]: 6 µM

O=C(Nc1ccccc1-c1cccs1)c1cccc(-c2c(O)cc(O)cc2O)c1 [Compound 65, 2′,4′,6′-Trihydroxy-biphenyl-3-carboxylic acid (2-thiophen-2-yl-phenyl)-amide]
IC50 [1]: 15.5 µM
E-Selectin [Ratio]: normalized ratio of %-inhibition of compound divided by %-inhibition of bimosiamose [2]: 1.13 Ratio
P-Selectin [Ratio]: normalized ratio of %-inhibition of compound divided by %-inhibition of bimosiamose [3]: 0.99 Ratio
IC50 [4]: 28.1 µM
IC50 [5]: 8.2 µM

O=C(Nc1cccc(C(F)(F)F)c1)c1cccc(-c2c(O)cc(O)cc2O)c1 [Compound 66, 2′,4′,6′-Trihydroxy-biphenyl-3-carboxylic acid (3-trifluoromethyl-phenyl)-amide]
E-Selectin [Ratio]: normalized ratio of %-inhibition of compound divided by %-inhibition of bimosiamose [2]: 1.47 Ratio
P-Selectin [Ratio]: normalized ratio of %-inhibition of compound divided by %-inhibition of bimosiamose [3]: 1.19 Ratio

O=C(O)c1cccc(NC(=O)c2cccc(-c3c(O)cc(O)cc3O)c2)c1 [Compound 67, 3-[(2′,4′,6′-Trihydroxy-biphenyl-3-carbonyl)-amino]-benzoic acid]
IC50 [1]: 25.2 µM
E-Selectin [Ratio]: normalized ratio of %-inhibition of compound divided by %-inhibition of bimosiamose [2]: 0.79 Ratio
P-Selectin [Ratio]: normalized ratio of %-inhibition of compound divided by %-inhibition of bimosiamose [3]: 0.95 Ratio
IC50 [4]: 27.3 µM
IC50 [5]: 23.3 µM
